# Test results published in patent US20260317319A1, “NOVEL ERGOLINES AND METHODS OF TREATING MOOD DISORDERS” (Gilgamesh Pharma Inc., priority 2023, published 2026).
# Where two headings read alike, the source gives them in different places.
# Tests used:
# 5-HT2B receptor [1] = molecular target: T1, 5-HT2B receptor (Homo sapiens, UniProt P41595); assay: cell-based; assay type: cell-based; details: for Emax: HEK293, agonist, HEK293, max dose, read-out: 5-HT2B % Act @ Max Dose; for Emax / EC50: Ca2+ flux; for EC50: agonist, HEK293
# T1 construct: expressed in transfected cells; host or cells: HEK293, stably transfected
# T1 sequence (P41595 whole entry): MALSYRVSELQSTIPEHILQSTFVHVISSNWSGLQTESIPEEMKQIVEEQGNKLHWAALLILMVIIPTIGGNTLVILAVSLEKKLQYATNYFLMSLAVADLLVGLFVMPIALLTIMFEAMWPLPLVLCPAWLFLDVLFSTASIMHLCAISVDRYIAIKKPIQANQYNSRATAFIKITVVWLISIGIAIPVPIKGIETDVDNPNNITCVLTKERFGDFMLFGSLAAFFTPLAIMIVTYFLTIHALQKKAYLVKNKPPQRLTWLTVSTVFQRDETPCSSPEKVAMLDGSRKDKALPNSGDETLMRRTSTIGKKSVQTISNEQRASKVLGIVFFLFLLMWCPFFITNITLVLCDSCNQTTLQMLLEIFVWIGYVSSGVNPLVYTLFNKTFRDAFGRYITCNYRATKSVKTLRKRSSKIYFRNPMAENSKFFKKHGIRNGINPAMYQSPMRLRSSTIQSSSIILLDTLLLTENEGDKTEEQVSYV
# Outline: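 FLIPR Tetra fluorescence read-out of calcium flux after compound addition. Receptor-expressing stable lines were used (HEK293 for 2A/2B; CHO with Gα15 for 1A), dye-loaded with Fluo-4 Direct and 2.5 mM final probenecid, 50 min at 37 °C.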
# 5-HT2C receptor = molecular target: T2, 5-HT2C receptor (Homo sapiens, UniProt P28335); assay: cell-based; details: read-out: 5-HT2C % Act @ Max Dose
# T2 sequence (P28335 33-458): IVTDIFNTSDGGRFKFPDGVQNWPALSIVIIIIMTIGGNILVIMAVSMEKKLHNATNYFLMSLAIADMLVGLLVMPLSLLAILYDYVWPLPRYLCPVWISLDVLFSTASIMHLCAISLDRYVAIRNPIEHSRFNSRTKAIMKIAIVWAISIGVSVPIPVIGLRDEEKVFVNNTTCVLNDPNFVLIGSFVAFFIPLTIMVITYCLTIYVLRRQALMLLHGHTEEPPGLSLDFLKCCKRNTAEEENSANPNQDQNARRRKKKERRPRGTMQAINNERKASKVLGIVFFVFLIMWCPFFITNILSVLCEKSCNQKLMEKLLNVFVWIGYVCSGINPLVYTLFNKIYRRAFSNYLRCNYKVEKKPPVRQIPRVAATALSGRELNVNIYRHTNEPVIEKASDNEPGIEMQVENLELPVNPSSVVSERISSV
# 5-HT1A receptor = molecular target: T3, 5-HT1A receptor (Homo sapiens, UniProt P08908); assay: cell-based; details: agonist, Ca2+ flux; for Emax: CHO, CHO cells with Gα15, max dose, read-out: 5-HT1A % Act @ Max Dose; for EC50: CHO cells with Gα15
# T3 construct: expressed in transfected cells; host or cells: CHO cells, stably transfected
# T3 sequence (P08908 1-422): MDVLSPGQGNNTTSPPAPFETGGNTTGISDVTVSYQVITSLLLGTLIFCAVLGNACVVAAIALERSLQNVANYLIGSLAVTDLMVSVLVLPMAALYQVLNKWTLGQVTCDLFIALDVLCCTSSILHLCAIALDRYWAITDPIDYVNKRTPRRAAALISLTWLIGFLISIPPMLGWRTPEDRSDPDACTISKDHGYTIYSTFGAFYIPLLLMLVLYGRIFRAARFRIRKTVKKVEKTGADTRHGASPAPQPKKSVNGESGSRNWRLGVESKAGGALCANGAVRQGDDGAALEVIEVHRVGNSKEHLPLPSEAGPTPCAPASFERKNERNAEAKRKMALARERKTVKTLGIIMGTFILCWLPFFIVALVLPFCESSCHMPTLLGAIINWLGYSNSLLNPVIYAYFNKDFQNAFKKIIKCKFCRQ
# Outline: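 Using HEK293 lines for the 5-HT2 subtypes and Gα15-coupled CHO cells for 5-HT1A, compounds were tested as agonists. Fluorescent Ca2+ signal followed dye loading (Fluo-4 Direct, 2.5 mM final probenecid, 50 min, 37 °C).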
# 5-HT2A receptor [2] = molecular target: T4, 5-HT2A receptor (Homo sapiens, UniProt P28223); assay: cell-based; assay type: cell-based; details: beta-arrestin recruitment; for Emax: agonist, max dose, read-out: 5-HT2A Arrestin % Act @ Max Dose
# T4 sequence (P28223 whole entry, the tested form may be a part): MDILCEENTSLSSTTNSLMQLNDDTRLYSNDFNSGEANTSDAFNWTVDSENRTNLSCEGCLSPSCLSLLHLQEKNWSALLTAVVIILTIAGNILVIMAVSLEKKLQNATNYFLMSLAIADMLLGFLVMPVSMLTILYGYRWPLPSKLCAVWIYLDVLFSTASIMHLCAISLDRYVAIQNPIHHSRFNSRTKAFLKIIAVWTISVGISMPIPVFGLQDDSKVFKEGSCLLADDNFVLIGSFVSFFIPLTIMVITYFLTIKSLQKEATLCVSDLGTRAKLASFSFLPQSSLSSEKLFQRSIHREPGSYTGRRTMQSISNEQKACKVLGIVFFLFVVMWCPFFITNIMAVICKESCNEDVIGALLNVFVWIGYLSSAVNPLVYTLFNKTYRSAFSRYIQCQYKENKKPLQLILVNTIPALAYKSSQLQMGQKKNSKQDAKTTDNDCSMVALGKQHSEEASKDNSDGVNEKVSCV
# Outline: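 PathHunter β-arrestin recruitment (enzyme fragment complementation): 5-HT2A fused to ProLink donor in cells co-expressing β-arrestin–β-galactosidase acceptor, seeded and held at 37° C before testing. Chemiluminescent read-out; agonist % activity = (sample RLU − vehicle)/(max control ligand − vehicle) × 100.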
# C57BL/6 mice = assay: Mouse head twitch response (HTR) assay (observer-counted); assay type: in vivo; details: SC; for HTR at most efficacious dose (bound): 20 min
# Method: Agonists of the 5-HT2A receptor are well known to induce this effect in rodents and the potency of this HTR is correlated with hallucinogenic potency in humans.
# Animals. Adult male C57BL/6 mice, aged 6-8 weeks (body weight 20-25 g) were used in this experiment. Animals were housed under controlled temperatures and 12-hour light/dark cycles (lights on between 07:00-19:00 h), with ad libitum food and water. This study was carried out in strict accordance with the requirements of the Committee for the Purpose of Control and Supervision of Experiments on Animals (CPCSEA), India. All efforts were made to minimize suffering.
# Procedure. Mice were administered one dose of the drug and immediately placed into a small open field for behavioral observation. Animals were observed continuously for 20 mins and the number of head twitches (HTs) were counted by an observer blind to the treatment condition.
# Statistical Analysis. The data points shown are the mean±standard error of the mean (SEM). Analysis was performed using GraphPad Prism 6. Curves were fit using a non-linear gaussian distribution to calculate ED50 and Emax values.
# Additional disclosed compounds were tested in the mouse head twitch response (HTR) assay according to the procedure described in Example 57 (administered SC). […] Lastly, compounds with much larger benzyl and phenethyl substituents on the amine nitrogen (e.g., 10 and 11) were low efficacy in this assay, consistent with their bias toward arrestin signaling (see Example 55).
# in vitro [3] = assay type: in vitro ADME, human; details: for microsomal CLint: read-out: Intrinsic clearance (Clint); for half-life: read-out: half-life (t1/2)
# in vitro [4] = assay type: in vitro ADME, mouse; details: for microsomal CLint: read-out: Intrinsic clearance (Clint); for half-life: read-out: half-life (t1/2)
# Description: MLM Stability Pooled MLM from male CD-1 mice (BIOIVT M00501) were used.
# in vitro [5] = assay type: in vitro ADME, rat; details: for microsomal CLint: read-out: Intrinsic clearance (Clint); for half-life: read-out: half-life (t1/2)
# Description: RLM Stability Pooled RLM from male Sprague-Dawley rats (Xenotech R1000) were used.
# 5-HT2A receptor [6] = molecular target: T4, 5-HT2A receptor; assay: cell-based; assay type: cell-based; set-up: expressed in transfected cells; host or cells: HEK293, stably transfected; details: Ca2+ flux; for Emax: HEK293, agonist, HEK293, max dose, read-out: 5-HT2A % Act @ Max Dose; for EC50: agonist, HEK293
# Outline: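 FLIPR Ca2+ flux agonist assay using stably transfected HEK293 (5-HT2A, 5-HT2B) or CHO cells co-expressing Gα15 (5-HT1A). Cells loaded with Fluo-4 Direct plus 2.5 mM probenecid (final) for 50 min at 37 °C, then compound added and fluorescence read.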
# 5-HT2B receptor [7] = molecular target: T1, 5-HT2B receptor; assay: 5-HT2B receptor radioligand binding ([3H]LSD); details: read-out: 5-HT2B Receptor Ki
# 5-HT2A receptor [8] = molecular target: T4, 5-HT2A receptor; assay: biochemical; assay type: binding; set-up: expressed in transfected cells; host or cells: HEK293, stably transfected; details: [3H]ketanserin 1 nM; HEK293 stable cell line; 1 h, 25 °C
# Outline: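 Affinity was measured in radioligand binding experiments using [^3H]ketanserin as the labelled ligand, following methods adapted from published procedures.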
# [9] = agonist, Ca2+ flux, Eurofins DiscoverX protocol, max dose
# [10] = human, microsomes, HLM 0.50 mg/mL, NADPH 1 mM, 1 μM compound, pH 7.4, 37° C., 60 min
# [11] = mouse, microsomes, MLM (male CD-1) 0.50 mg/mL, NADPH 1 mM, 1 μM compound, pH 7.4, 37° C., 60 min
# [12] = rat, microsomes, RLM (male Sprague-Dawley) 0.50 mg/mL, NADPH 1 mM, 1 μM compound, pH 7.4, 37° C., 60 min
compound,measurement,setting,value
"CC[C@@H](C)NC(=O)[C@@H]1C=C2c3cccc4[nH]cc(c34)C[C@H]2N(CC)C1 [Compound 5, (6aR,9R)—N—((R)-sec-butyl)-7-ethyl-4,6,6a,7,8,9-hexahydroindolo[4,3-fg]quinoline-9-carboxamide]",Emax,5-HT2B receptor [1],84.8%
same,Emax,5-HT2C receptor; [9],114%
same,Emax,5-HT1A receptor,108%
same,Emax,5-HT2A receptor [2],106%
same,5-HT2A arrestin agonist class,5-HT2A receptor [2],full agonists
same,HTR at most efficacious dose (bound),C57BL/6 mice,> 15 HTR
same,stability in HLM,in vitro [3],much lower stability (higher clearance)
same,stability in MLM,in vitro [4],much lower stability (higher clearance)
same,stability in RLM,in vitro [5],much lower stability (higher clearance)
same,Emax,5-HT2A receptor [6],103%
"CCC[C@@H](C)NC(=O)[C@@H]1C=C2c3cccc4[nH]cc(c34)C[C@H]2N(CCC)C1 [Compound 7, (6aR,9R)—N—((R)-pentan-2-yl)-7-propyl-4,6,6a,7,8,9-hexahydroindolo[4,3-fg]quinoline-9-carboxamide]",Emax,5-HT2B receptor [1],94.8%
same,selectivity for 5-HT2A over 5-HT2B,"5-HT2B receptor [1]; functional, compared to closest N-methyl counterparts Int8, Int11, Int17",more selective for 5-HT2A over 5-HT2B
same,Emax,5-HT2C receptor; [9],115%
same,Emax,5-HT1A receptor,107%
same,Emax,5-HT2A receptor [2],110%
same,5-HT2A arrestin agonist class,5-HT2A receptor [2],full agonists
same,HTR at most efficacious dose (bound),C57BL/6 mice,> 15 HTR
same,stability in HLM,in vitro [3],much lower stability (higher clearance)
same,half-life (t1/2),"in vitro [3]; HLM 0.50 mg/mL, NADPH 1 mM, 1 μM compound, pH 7.4, 37° C., 60 min",1.65 min
same,stability in MLM,in vitro [4],much lower stability (higher clearance)
same,half-life (t1/2),"in vitro [4]; MLM (male CD-1) 0.50 mg/mL, NADPH 1 mM, 1 μM compound, pH 7.4, 37° C., 60 min",0.541 min
same,stability in RLM,in vitro [5],much lower stability (higher clearance)
same,half-life (t1/2),"in vitro [5]; RLM (male Sprague-Dawley) 0.50 mg/mL, NADPH 1 mM, 1 μM compound, pH 7.4, 37° C., 60 min",1.612 min
same,Emax,5-HT2A receptor [6],94.5%
"CCN(CC)C(=O)[C@@H]1C=C2c3cccc4[nH]cc(c34)C[C@H]2N(CC2CCCCC2)C1 [Compound 89, (6aR,9R)-7-(cyclohexylmethyl)-N,N-diethyl-4,6,6a,7,8,9-hexahydroindolo[4,3-fg]quinoline-9-carboxamide]",Ki,5-HT2B receptor [7],0.00967 µM
same,Emax,5-HT2B receptor [1],11.5%
same,EC50,5-HT2B receptor [1],> 10 µM
same,Emax,5-HT1A receptor,84.4%
same,EC50,5-HT1A receptor,> 100 µM
same,microsomal CLint,in vitro [3]; [10],104 µL/min/mg
same,half-life,in vitro [3]; [10],13.3 min
same,microsomal CLint,in vitro [4]; [11],572 µL/min/mg
same,half-life,in vitro [4]; [11],2.4 min
same,microsomal CLint,in vitro [5]; [12],244 µL/min/mg
same,half-life,in vitro [5]; [12],5.7 min
same,Ki,5-HT2A receptor [8],0.00167 µM
same,Emax,5-HT2A receptor [6],51.8%
same,EC50,5-HT2A receptor [6],0.839 µM
"CCN(CC)C(=O)[C@@H]1C=C2c3cccc4[nH]cc(c34)C[C@H]2N(CC2CCCC2)C1 [Compound 90, (6aR,9R)-7-(cyclopentylmethyl)-N,N-diethyl-4,6,6a,7,8,9-hexahydroindolo[4,3-fg]quinoline-9-carboxamide]",Ki,5-HT2B receptor [7],0.00208 µM
same,Emax,5-HT2B receptor [1],12%
same,EC50,5-HT2B receptor [1],> 10 µM
same,Emax,5-HT1A receptor,76.8%
same,EC50,5-HT1A receptor,42.6 µM
same,microsomal CLint,in vitro [3]; [10],140 µL/min/mg
same,half-life,in vitro [3]; [10],9.9 min
same,microsomal CLint,in vitro [4]; [11],649 µL/min/mg
same,half-life,in vitro [4]; [11],2.1 min
same,microsomal CLint,in vitro [5]; [12],370 µL/min/mg
same,half-life,in vitro [5]; [12],3.7 min
same,Ki,5-HT2A receptor [8],0.00235 µM
same,Emax,5-HT2A receptor [6],55.8%
same,EC50,5-HT2A receptor [6],0.642 µM
CCC(CC)NC(=O)[C@@H]1C=C2c3cccc4[nH]cc(c34)C[C@H]2N(C)C1 [Int14],Emax,5-HT2B receptor [1],9.84%
same,Emax,5-HT2C receptor,99.1%
same,Emax,5-HT1A receptor,102%
same,Emax,5-HT2A receptor [2],44.4%
same,5-HT2A arrestin agonist class,5-HT2A receptor [2],partial agonists
same,HTR at most efficacious dose (bound),C57BL/6 mice,< 15 HTR
same,half-life (t1/2),"in vitro [3]; human, microsomes, pH 7.4",17.593 min
same,half-life (t1/2),"in vitro [4]; mouse, microsomes, pH 7.4",6.07 min
same,half-life (t1/2),"in vitro [5]; rat, microsomes, pH 7.4",37.988 min
same,Emax,5-HT2A receptor [6],93.3%
CCC[C@@H](C)NC(=O)[C@@H]1C=C2c3cccc4[nH]cc(c34)C[C@H]2N(C)C1 [Int17],Emax,5-HT2B receptor [1],25.5%
same,Emax,5-HT2C receptor,102%
same,Emax,5-HT1A receptor,113%
same,Emax,5-HT2A receptor [2],38.8%
same,5-HT2A arrestin agonist class,5-HT2A receptor [2],partial agonists
same,HTR at most efficacious dose (bound),C57BL/6 mice,< 15 HTR
same,# HTR/20 min at Most Efficacious Dose,C57BL/6 mice; most efficacious dose 0.32 mg/kg,6.0 HTR/20 min
same,half-life (t1/2),"in vitro [3]; human, microsomes, pH 7.4",15.865 min
same,half-life (t1/2),"in vitro [4]; mouse, microsomes, pH 7.4",8.252 min
same,half-life (t1/2),"in vitro [5]; rat, microsomes, pH 7.4",27.894 min
same,Emax,5-HT2A receptor [6],91.5%
